Columns and labels:
[1] = biological target: T1, Amine oxidase [copper-containing] 2 (Homo sapiens, UniProt O75106); test: AOC2 Biochemical Assay
T1 sequence (O75106 whole entry): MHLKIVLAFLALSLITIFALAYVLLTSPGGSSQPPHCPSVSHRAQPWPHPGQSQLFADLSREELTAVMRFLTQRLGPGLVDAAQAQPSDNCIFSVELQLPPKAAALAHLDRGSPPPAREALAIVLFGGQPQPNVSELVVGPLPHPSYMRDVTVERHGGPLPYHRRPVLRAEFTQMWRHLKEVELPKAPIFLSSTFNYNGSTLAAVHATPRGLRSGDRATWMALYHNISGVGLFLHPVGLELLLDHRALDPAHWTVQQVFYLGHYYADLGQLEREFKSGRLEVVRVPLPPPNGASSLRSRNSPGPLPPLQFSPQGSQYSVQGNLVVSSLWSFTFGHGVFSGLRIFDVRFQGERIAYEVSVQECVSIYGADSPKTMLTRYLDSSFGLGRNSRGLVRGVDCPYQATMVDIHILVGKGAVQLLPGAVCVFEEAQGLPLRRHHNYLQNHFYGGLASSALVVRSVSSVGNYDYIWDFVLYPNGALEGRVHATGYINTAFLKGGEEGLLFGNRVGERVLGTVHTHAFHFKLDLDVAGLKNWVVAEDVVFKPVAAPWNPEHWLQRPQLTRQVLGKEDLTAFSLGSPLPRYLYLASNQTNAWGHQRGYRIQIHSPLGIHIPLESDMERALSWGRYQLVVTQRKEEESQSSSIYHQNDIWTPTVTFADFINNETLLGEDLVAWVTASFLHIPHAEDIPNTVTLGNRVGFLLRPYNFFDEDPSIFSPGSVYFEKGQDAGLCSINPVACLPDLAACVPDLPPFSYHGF
Method: Cells are cultured for 3 days in EMEM culture medium containing 10% FCS (#04-00-1A, Biological Industries). After washing twice with ice cold PBS, cells are lysed by mechanic homogenation and cleared supernatants are shock frozen in liquid nitrogen and stored at −80° C.For the determination of AOC2 enzymatic activity cell lysates are thawed on ice and 1:1 diluted with reaction buffer. An Aliquot of 45 μL is added to the compound dilution and incubated for 30 min at 37° C.

[2] = biological target: T2, Amine oxidase [copper-containing] 3 (Homo sapiens, UniProt Q16853); test: AOC3 Biochemical Assay
T2 sequence (Q16853 whole entry): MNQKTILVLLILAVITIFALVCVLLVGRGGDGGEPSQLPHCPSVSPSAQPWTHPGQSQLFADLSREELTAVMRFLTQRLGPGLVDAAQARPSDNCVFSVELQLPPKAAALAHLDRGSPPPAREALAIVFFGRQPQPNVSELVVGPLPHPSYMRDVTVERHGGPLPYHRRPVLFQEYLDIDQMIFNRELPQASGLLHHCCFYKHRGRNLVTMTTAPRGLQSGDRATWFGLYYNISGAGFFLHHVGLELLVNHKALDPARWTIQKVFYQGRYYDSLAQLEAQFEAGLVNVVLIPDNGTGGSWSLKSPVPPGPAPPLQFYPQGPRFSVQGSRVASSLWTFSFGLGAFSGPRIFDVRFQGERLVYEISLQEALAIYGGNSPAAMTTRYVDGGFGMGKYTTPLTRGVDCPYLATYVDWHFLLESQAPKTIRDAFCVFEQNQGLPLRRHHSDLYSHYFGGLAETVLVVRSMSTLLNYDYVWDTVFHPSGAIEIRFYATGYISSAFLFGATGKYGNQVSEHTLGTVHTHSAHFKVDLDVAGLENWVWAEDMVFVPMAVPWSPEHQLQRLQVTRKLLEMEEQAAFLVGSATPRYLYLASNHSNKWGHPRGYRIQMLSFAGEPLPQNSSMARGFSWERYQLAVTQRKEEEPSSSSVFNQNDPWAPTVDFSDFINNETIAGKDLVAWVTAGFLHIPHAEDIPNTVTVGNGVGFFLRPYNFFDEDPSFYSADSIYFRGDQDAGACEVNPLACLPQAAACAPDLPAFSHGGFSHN
Method: Recombinant CHO cells, overexpressing the human (1500 cells/well), mouse (1000 cells/well) or rat (500 cells/well) AOC3 enzyme are diluted in reaction buffer and added in a volume of 15 μL to the wells. After incubation for 20 minutes at 37° C., 2 μL of MAO substrate (dissolved in DMSO at 16 mM, adjusted to assay concentration in reaction buffer to a final assay concentration of 20 μM) is added and further incubated for 60 minutes at 37° C. The turnover of the substrate is determined by the addition of 20 μL of the detection-mix which was generated by the addition of reconstitution buffer with esterase (PROMEGA, #V1402) to the luciferine detection reagent (PROMEGA, #V1402).

[3] = biological target: T3, Diamine oxidase [copper-containing] (Homo sapiens, UniProt P19801); test: AOC1 Biochemical Assay
T3 sequence (P19801 whole entry): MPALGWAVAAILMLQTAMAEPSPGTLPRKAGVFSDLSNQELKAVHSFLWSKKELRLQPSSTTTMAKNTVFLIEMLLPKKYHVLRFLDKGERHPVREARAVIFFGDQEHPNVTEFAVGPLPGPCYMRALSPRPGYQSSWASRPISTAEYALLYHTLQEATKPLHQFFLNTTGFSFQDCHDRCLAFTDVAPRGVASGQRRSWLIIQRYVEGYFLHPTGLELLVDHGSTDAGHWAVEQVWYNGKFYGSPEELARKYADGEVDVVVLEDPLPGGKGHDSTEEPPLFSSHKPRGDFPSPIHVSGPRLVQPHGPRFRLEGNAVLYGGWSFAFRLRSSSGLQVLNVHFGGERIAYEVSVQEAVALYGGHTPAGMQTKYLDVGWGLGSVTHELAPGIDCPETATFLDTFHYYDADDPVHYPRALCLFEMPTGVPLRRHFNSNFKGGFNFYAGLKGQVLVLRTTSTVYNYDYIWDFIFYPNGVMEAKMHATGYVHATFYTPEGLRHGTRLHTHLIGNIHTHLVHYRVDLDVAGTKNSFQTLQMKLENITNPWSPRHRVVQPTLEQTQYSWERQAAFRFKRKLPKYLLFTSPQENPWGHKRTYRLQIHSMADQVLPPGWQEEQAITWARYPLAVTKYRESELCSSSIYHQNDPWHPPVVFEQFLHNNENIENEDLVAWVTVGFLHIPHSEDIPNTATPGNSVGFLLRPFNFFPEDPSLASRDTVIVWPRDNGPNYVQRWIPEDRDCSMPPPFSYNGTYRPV
Method: An aliquot of 3 μL of the compound dilution is added to a 384 well plate (Optiplate, PS, flat bottom F, black, PERKIN ELMER, #6007270) in a DMSO concentration of 6.6%.An AOC1 enzyme aliquot (#8297-AO-010, R&D Systems) is thawed on ice, diluted in reaction buffer and added in a volume of 7 μL to the wells to give a final assay concentration of 1 ng/well. After incubation of inhibitor and enzyme for 30 minutes at 37° C., the enzymatic reaction is started with the addition of 10 μL of Amplex Red reaction mix (final assay concentration: 100 mM sodiumphosphate, 120 μM Amplex Red reagent (#A22177 Molecular Probes), 1.5 U/mL Horseradish Peroxidase (#P8375 Sigma-Aldrich), 200 μM putrescine (#P7505 Sigma-Alrdich), 0.05% Pluronic F-127 (#P3000MP Sigma-Aldrich), pH 7.4, 37° C.).After an incubation for 30 minutes at 37° C. the turnover of the substrate is determined directly (or after the addition of an excess of an amine-oxidase inhibitor) with a fluorescence reader (Ex 540 nm/Em 590 nm) like Envision 2104 Multilabel Reader (PERKIN ELMER).

IC50 [1]: 629 nM | IC50 [2]: 73 nM | IC50 [3]: > 50000 nM
SMILES: CC(C)(O)NC(=O)[C@H]1CCN(S(=O)(=O)c2ccc(OC/C(=C/F)CN)nc2)C1 [US12178809, Example 05]

Source: BindingDB's records for patent US12178809 (Boehringer Ingelheim International, 2024)
